This note sets out measurements from PubChem BioAssay AID720646 (Broad Institute, 2013).

Activity calls are given as the source filed them.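 How the source made its calls: active means fitted rise in melting shift crosses a set limit at or below the top valid dose tested; inconclusive means flat fit at mid-level activity, or a poor quality fit; inactive means the rest.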

Fibroblast growth factor 22 (Homo sapiens), sequence (Q9HCT0 whole entry, looked up): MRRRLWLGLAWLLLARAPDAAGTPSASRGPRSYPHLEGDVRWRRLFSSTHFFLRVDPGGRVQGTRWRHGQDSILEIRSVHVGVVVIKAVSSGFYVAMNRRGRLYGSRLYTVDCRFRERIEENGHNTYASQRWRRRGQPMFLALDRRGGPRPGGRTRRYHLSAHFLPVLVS

This experiment concerns the target Fibroblast growth factor 22 (Homo sapiens) (UniProt Q9HCT0). In words: binders of human FGF22 protein, dose response, FGF22 synaptogenesis inhibitor project, biophysical, thermal shift, cherry-pick retest (AID 720646). As to conditions: recombinant FGF22 thermal shift, SYPRO orange fluorescence.
As for `O=C(N/N=C/c1c[nH]c2ccccc12)c1cccs1`, the AC was 23.4 µM.
For `N#Cc1ccc(NC(=O)Nc2cccc(C#N)c2)cc1`, the AC is 30.1 µM.
For `CC1(C(=O)NS(=O)(=O)Cc2cccc(Cl)c2)CCN1C(=O)C1(c2ccc(Cl)cc2)CCC1` (centres undefined) the value was 24.4 µM; for `COc1ccc(NC(=O)CCCN2C(=O)CN(C)C2=O)c(OC)c1`, > 38 µM (inactive).
Next, `Cn1c(=O)c2c(-c3ccccc3)n(-c3cc(Cl)c([N+](=O)[O-])cc3O)cc2n(C)c1=O`: 28.3 µM; `O=S1(=O)N=C(N(Cc2cccs2)c2ccc(O)cc2)c2ccccc21`: 20.4 µM; `Cc1cc(C)cc(NC(=O)CN2C(=O)NC(Cc3c[nH]c4ccccc34)C2=O)c1` (centres undefined): > 38 µM (inactive).
For `O=C(Nc1ccc(S(=O)(=O)N2CCOCC2)cc1)c1ccc(F)cc1`, the AC was > 38 µM (inactive).
Take `CC1C=NC(S(=O)(=O)N2CC[C@@H]3[C@@H](CO)N(C)c4ccc(-c5ccc(F)cc5)cc4[C@@H]32)=N1` (some centres undefined): the AC is > 38 µM (inactive).
Next, `O=C(O)c1[nH]c2ccc(Br)cc2c1CCN1C(=O)c2cccc([N+](=O)[O-])c2C1=O`: > 38 µM (inactive); `O=C(N/N=C/c1c[nH]c2ccccc12)c1cccc(Cl)c1`: 27.9 µM.
Next, `C[C@@H]1CN([C@H](C)CO)C(=O)Cc2cc(N(C)C)ccc2O[C@@H]1CN(C)Cc1ccc(Cl)c(Cl)c1`: 37.3 µM.
Next, `O=S(=O)(Nc1nnc(C(F)(F)F)s1)c1ccc(Cl)cc1`: 37.5 µM; `CC(C)c1c(C(=O)N/N=C/c2c[nH]c3ccccc23)nnn1-c1nonc1N`: 27.4 µM.
As for `COc1ccc(N2CCN(CCOc3ccc4c(C)cc(=O)oc4c3)CC2)cc1`, the AC is > 38 µM (inactive).
Next, `O=C(N/N=C\c1c[nH]c2ccccc12)c1ccc(O)cc1`: 16.8 µM.
For `O=C(Cc1n[nH]c(=O)[nH]c1=O)N/N=C/c1c(O)ccc2ccccc12` the value was > 38 µM (inactive).
Next, `COC(=O)C(C)Oc1cc(OC(C)C(=O)OC)c2c(C)c(Cl)c(=O)oc2c1` (centres undefined): > 38 µM (inactive).
Turning to `O=C(N[C@H]1C=C[C@H](CC(=O)N2CCCCC2)O[C@H]1CO)c1cccc(F)c1`, the AC is 35.5 µM.
Next, `C[C@@H]1CN([C@@H](C)CO)S(=O)(=O)c2ccc(-c3cccc(C#N)c3)cc2O[C@@H]1CN(C)C(=O)Nc1cc(F)ccc1F`: > 38 µM (inactive).
Next, `CCC(=O)Nc1nc(C)c(-c2csc(Nc3ccccn3)n2)s1`: 21.6 µM.
Take `O=C(CC1SC(=O)NC1=O)Nc1ccc(Cl)cc1` (centres undefined): the AC is 33.2 µM.
Next, `CCC(CC)CN1CCC(CN2C(=O)C(=O)NC[C@@H]2CC(C)C)CC1`: > 38 µM (inactive).
Regarding `CC1([N+](=O)[O-])COP(=O)(NC2CC2)OC1` (centres undefined), the AC was 21.5 µM.
For `NC(=O)c1ccsc1NC(=O)COC(=O)Cc1c[nH]c2ccccc12` the value was 27.6 µM; for `Cc1[nH]c2ccc(C(=O)OCC(=O)Nc3cccc(S(N)(=O)=O)c3)cc2c1C`, 10.1 µM; for `COc1ccc(/C=N/Nc2ccc([N+](=O)[O-])cc2)cc1O`, 36.6 µM.
`CNC[C@H]1Oc2ccc(NC(=O)Cc3cn(C)c4ccccc34)cc2C(=O)N([C@H](C)CO)C[C@H]1C`: the AC was > 42 µM (inactive).
With `CSc1ccc(/C=N/NC(=O)c2ccc3nc[nH]c3c2)cc1`, the AC is 37.7 µM.
Next, `Cc1onc(-c2ccccc2)c1C(=O)Nc1ncc([N+](=O)[O-])s1`: 34 µM.
Take `Cc1cc(C(=O)N/N=C/c2c[nH]c3ccccc23)cs1`: the AC is 30.3 µM.
For the molecule `Cc1ccc(NC(=O)c2ccc(OCc3c(C)noc3C)cc2)c(C)c1`, the AC was 34.2 µM.
On to `CC(=O)Nc1cccc(C(=O)N/N=C/c2c[nH]c3ccccc23)c1`, for which the AC was 13.7 µM.
Consider `Nc1nnc(CC(=O)N/N=C/c2cc([N+](=O)[O-])cc(Br)c2O)s1`, for which the AC was 24.7 µM.
